The values that follow come from paper PMC7324975 (BMC Cancer, 2020).

In one test the test system is CT26 cells. Put plainly: WST1 cell viability assay. Type of test: cell-based, mice. As to conditions: 24 h; for anti-tumor efficacy (cell viability), single use: C: 0 ~ 160 μM, R: 12.5 ~ 200 μM; for IC50: Mus musculus, WST1. Background: Tetrazolium dyes change colour on reduction, which living cells bring about.
The test system of a further test is Caspase-3. Put plainly: Western blot of Caspase-3 cleavage form. The test is classed as cell-based, mice. As to conditions: CT26 cells, 3 h, single agents. Here is the method: The CT26 cell lysates from the variety of the treatments were prepared using RIPA lysis buffer for immunoblotting of Cyclin D1 (Cell Signaling Technology, #92G2), Cyclin A (Santa Cruz Biotechnology, #sc-271,645), Hsp70 (Santa Cruz Biotechnology, #SC24), Caspase-3, and cleavage form of Caspase-3 (Cell Signaling Technology, #9662S). Western blot analysis was performed as previously reported.
In general terms: Immunoblotting shows a protein as a band on a membrane.

Protocol for CT26 cells: The mice colon cancer cell line, CT26, was provided by Johnpro Biotech (Taipei, Taiwan). The cells were maintained in ATCC-formulated RPMI-1640 Medium containing 10% heat-inactivated fetal bovine serum (FBS) and 1% antibiotic-antimycotic (GM) in a humidified incubator with 5% CO2 at 37 °C. […] The cell viability was determined through WST1 assay (Roche, Germany) after the 24-h treatment.

Consider `COc1cc(/C=C/C(=O)CC(=O)/C=C/c2ccc(O)c(OC)c2)ccc1O` [Curcumin, curcumin], for which, in the test on CT26 cells, the “anti-tumor efficacy (cell viability), single use” value is “dose-dependent” and the 50% inhibitory concentration (IC50) (commonly the concentration needed to halve the response being measured) turned out to be 26.8 ± 1.06 µM. In addition, in the test with Caspase-3, the “cleavage form of Caspase-3” value is “increased”.

As for `Oc1ccc(/C=C/c2cc(O)cc(O)c2)cc1` [Resveratrol, resveratrol], in the test on CT26 cells, the “anti-tumor efficacy (cell viability), single use” value is “dose-dependent” and inhibition was half-maximal at 88.8 ± 1.07 µM (IC50). The “cleavage form of Caspase-3” value with Caspase-3 is listed as “increased”.
